This note sets out measurements from ChEMBL document CHEMBL1201862, “PubChem BioAssay data set” (2004).

What all share (experiment): NCI anticancer screen, dose series, 48 h
Experiment [1] deals with A549.
Experiment [2] deals with CCRF-CEM.
Experiment [3] has as its system COLO 205.
The test system of experiment [4] is DMS-114.
In experiment [5] the test system is EKVX.
Experiment [6] concerns HCT-116.
Experiment [7] relates to HCT-15.
In experiment [8] the test system is K562.
In experiment [9] the test system is KM12.
The test system of experiment [10] is MOLT-4.
Experiment [11] deals with NCI-H23.
Experiment [12] concerns SK-MEL-28.
Experiment [13] deals with SNB-19.
Experiment [14] has as its system SW-620.
The test system of experiment [15] is TK-10.
Experiment [16] deals with U-251.

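Briefly, cells in 96-well plates were exposed to five compound concentrations for 48 h, and endpoints were estimated by linear interpolation. GI50: concentration for 50% inhibition of growth.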 Active and inactive are the calls of the source. Rule as the data show it: active = GI50 up to about 1.1 µM and inactive = higher.

With `COc1ccc(O)c2c(=O)ccccc12`, the GI50 in [1], in experiment [2], in experiment [3], in [4], in [5] and in experiment [6] was > 100 µM (inactive) throughout. The GI50 in experiment [7] was over 100 µM; in experiment [8], > 100 µM (inactive); in experiment [9], > 100 µM (inactive); in experiment [10], > 100 µM (inactive); in experiment [11] it was > 100 µM (inactive); in [12] it was > 100 µM (inactive). Besides, the GI50 in experiment [13] is > 100 µM (inactive); in experiment [14], > 100 µM (inactive); in experiment [15], 6.32 µM (inactive); in experiment [16] it was > 100 µM (inactive).
For `COC(=O)C1(O)c2ccccc2N=C2C1CCN2C` (stereo not given), the GI50 in [1], in [2], in [3], in experiment [4], in experiment [5] and in experiment [6] was > 100 µM (inactive) each time. Further, the GI50 in [7] is over 100 µM; in experiment [8], > 100 µM (inactive); in experiment [9], > 100 µM (inactive); in experiment [10], > 100 µM (inactive); in experiment [11], > 100 µM (inactive); in [12] it was > 100 µM (inactive). Also, the GI50 in [13], in [14], in experiment [15] and in [16] was > 100 µM (inactive) throughout.
`COC(=O)C1CSC(c2csc(CCN)n2)=N1` (stereo not given): the GI50 in experiment [1], in [2], in experiment [3], in [4], in experiment [5] and in experiment [6] was > 100 µM (inactive) each time. Besides, the GI50 in [7] is over 100 µM; in experiment [8], > 100 µM (inactive); in experiment [9], > 100 µM (inactive); in experiment [10], > 100 µM (inactive); in [11], > 100 µM (inactive); in experiment [12] it was > 100 µM (inactive). Moreover, the GI50 in experiment [13], in experiment [14], in experiment [15] and in experiment [16] was > 100 µM (inactive) throughout.
Turning to `c1c[nH]c(Cc2nc(Cc3c[nH]cn3)c[nH]2)n1`, the GI50 in experiment [1] was 3.96 µM (inactive); in [2], 5.06 µM (inactive); in experiment [3] it was 5.37 µM (inactive); in [4] it was 16.3 µM (inactive); in experiment [5], 4.49 µM (inactive); in experiment [6], 29.5 µM (inactive). Also, the GI50 was 4.58 µM in [7]; 3.37 µM (inactive) in [8]; 7.64 µM (inactive) in experiment [9]; 3.48 µM (inactive) in [10]; 34.8 µM (inactive) in experiment [11]; 28.2 µM (inactive) in [12]. Also, the GI50 in experiment [13] is 22.5 µM (inactive); in [14], 6.73 µM (inactive); in [15] it was 67.5 µM (inactive); in [16], 34 µM (inactive).
`CC1(C)COC(C2(C)C(=O)C=C(c3ccccc3)c3ccccc32)=N1` (stereo not given): the GI50 was 33.3 µM (inactive) in experiment [1]; 35.5 µM (inactive) in [2]; 42.6 µM (inactive) in experiment [3]; 38.7 µM (inactive) in experiment [4]; 45.4 µM (inactive) in experiment [5]; 44.1 µM (inactive) in experiment [6]. In addition, the GI50 in experiment [7] was 27.4 µM; in experiment [8], 33.3 µM (inactive); in experiment [9] it was 47.3 µM (inactive); in experiment [10], 25.8 µM (inactive); in [11] it was 47.1 µM (inactive); in experiment [12], 42.9 µM (inactive). In addition, the GI50 was 50.5 µM (inactive) in experiment [13], 81.8 µM (inactive) in [14], 93.8 µM (inactive) in experiment [15] and 59.4 µM (inactive) in [16].
